Earlier results, collected in US20030162781A1, “Vehicle for applying chemical compounds on wood” (priority 2001, published 2003).

Details: water as carrier

**Q.** For `O` [Water], which wood penetration is on record?
**A.** scarcely penetrates the wood
